The values that follow come from patent US20230150984A1, “NICOTINAMIDE MONONUCLEOTIDE AND NICOTINAMIDE RIBOSIDE DERIVATIVES AND USE THEREOF IN THE TREATMENT OF VIRAL INFECTIONS AND RESPIRATORY COMPLICATIONS, IN […] BY INFL[…] CORONAVIRUS” (NUVAMID SA, priority 2020, published 2023).

Entries after “also recorded” stand apart in the source; their conditions may differ.

The subject of one experiment is H1N1. Description: NMN and NR on influenza virus pulmonary infection in mice (Example 7). The experiment is classed as in vivo. The note with it: H1N1 infected mice; for Remaining mice, Day 11 / Remaining mice, Day 14: 12 per group, loss of 25% or more bodyweight counted as dead; for Remaining mice, Day 11 / Remaining mice, Day 14 / survival rate at the end of the experiment: I-A or I-G 185 mg/kg i.p. daily, Tamiflu 2x1 mg/kg oral; for body weight loss in comparison to vehicle: I-A or I-G 185 mg/kg, Tamiflu 2 mg/kg, D0 to D14. As for the experimental part: The compounds I-A and I-G were delivered by intraperitoneal route at 185 mg/kg daily during all the experiment. 72 mice were daily weighed to adapt the volume of compounds. Physiological buffer was used as control and was administrated by i.p once per day during all the experiment. Control animals were orally administrated with Tamiflu at 2 mg/kg during all the experiment. Each animal has been infected with H1N1. The experimental groups are as follows: • vehicle: H1N1 infection+physiological buffer • Tamiflu: H1N1 infection+Tamiflu (2×1 mg/kg) • Compound I-A: H1N1 infection+NMN (185 mg/kg) • Compound I-G: H1N1 infection+NR (185 mg/kg) • Tamiflu+Compound I-A: H1N1 infection+Tamiflu (2×1 mg/kg)+Compound I-A (185 mg/kg) • Tamiflu+Compound I-G: H1N1 infection+Tamiflu (2×1 mg/kg)+Compound I-G (185 mg/kg)
Survival rates, body weight and clinical scores were monitored during all the experiment.
Survival rates (FIG. 7): Animals which lost 25% or more bodyweight, were euthanized for ethical reasons and considered as dead. Survival rates were monitored during all the experiment. […]
Respiratory scoring (FIG. 10): the respiratory scoring was assessed according to the following criteria: […]

Experiment [1] relates to Influenza virus H1N1 PR/8/34. Description: Murine influenza virus H1N1 PR/8/34 pulmonary infection, lethal dose (Example 2). The experiment is classed as in vivo, mice. The note with it: for body weight evolution D0 to D14 in comparison to vehicle / clinical score / clinical states of the mice D0 to D14: 500 PFU H1N1, I-A 185 mg/kg i.p., Tamiflu 1 mg/kg oral twice a day; for viral load in lung: 8 days after infection with 500 PFU of influenza A virus, vs vehicle group; for survival rate at D14: mice infected intranasally with 500 PFU H1N1 PR/8/34, Tamiflu 1 mg/kg oral gavage twice a day, D0-D14.

Experiment [2] relates to Influenza virus H1N1 PR/8/34 strain. Description: Compound I-A dose-response on influenza virus pulmonary infection (Example 8). Format: in vivo, mice. The settings on record: for Remaining mice, Day 10 / Remaining mice, Day 14: 500 PFU H1N1 PR/8/34, 12 mice; for viral load in lung: 8 days after infection with 500 PFU of influenza A virus. As to the method: The model consists in intranasal administration of 500 PFU of Influenza virus H1N1 PR/8/34 strain to induce pneumonia. Compound I-A was delivered by intraperitoneal (i.p.) route at 90, 185 or 500 mg/kg immediately after infection and then daily during all the experiment. Mice were daily weighed to adapt the volume of compounds. Physiological buffer was used as control and was administrated by i.p once per day during all the experiment. Each experimental group comprises 22 mice: 12 mice for the survival study, 5 mice of the flow cytometry analysis and 5 mice for the assessment of viral load.
The experimental groups are the following: • Group 1: Vehicle (i.p.) • Group 2: Compound I-A 90 mg/kg • Group 3: Compound I-A 185 mg/kg • Group 4: Compound I-A 500 mg/kg
At day 8, 5 mice per group are use to measure the following parameters. • Blood collection: 3 aliquots (a, b and c) a)+ac. perchlorique (NAD dosage) b) immune cell characterization (cytometry) c) remaining plasma->freezing • Lung and lymph nodes collection, cell preparation, counting and immune cell characterization (cytometry) • Remaining cells (if any) from the 2 tissues treated for RNAseq • Viral load in the lungs (5 mice per group)
Survival rates, body weight, clinical scores, viral load in lungs and quantification of subsets of immune population in lung, blood and draining lymph node at day 8 post-infection by flow cytometry were monitored during all the experiment.
Survival (FIG. 11): Animals which lost 25% or more bodyweight, were euthanized for ethical reasons and considered as dead. Survival rates were monitored during all the experiment. […]

Where [3] appears, read: I-A 90, 185 or 500 mg/kg i.p. daily.

Take `NC(=O)c1ccc[n+]([C@@H]2O[C@H](COP(=O)(O)O)[C@@H](O)[C@H]2O)c1` [Compound I-A, Nicotinamide mononucleotide]: in the experiment with H1N1, the “Remaining mice, Day 11” value was 7/12; the “Remaining mice, Day 14” value is 7/12; the “survival rate at the end of the experiment” value (“survival rate at the end” for short) is on record as 58%; the “body weight loss in comparison to vehicle” value (“body weight loss” for short) is “decrease the body weight loss”. Also, in experiment [1], the “body weight evolution D0 to D14 in comparison to vehicle” value is “slight improvement”, the “clinical score / clinical states of the mice D0 to D14” value is given as “significantly improved clinical states” and the “viral load in lung” value is given as “no impact”. In addition, in experiment [1] (D8, cytometry on blood), the “H1N1 induced lymphopenia in blood (T cells levels)” value is “reduced H1N1 induced lymphopenia”. The “recruitment of monocyte-derived macrophages and dendritic cells and CD8+ T cells in infected lungs” value in experiment [1] (D8 post-inoculation, cytometry on lung) is recorded as “reduced the recruitment”. Further, the circulating monocytes result in experiment [1] (D8 post-inoculation, in comparison to vehicle and oseltamivir-treated animals) was “decreased circulating monocytes”. Further, the “animal mortality / efficacy on survival” value in experiment [1] (I-A 185 mg/kg i.p. once a day, compared to untreated control animals or oseltamivir, 185 mg/kg) is “reduce animal mortality; also recorded: more effective than oseltamivir”. The “survival rate at D14” value in experiment [1] (I-A 185 mg/kg i.p. once a day) is on record as 67%. Further, in experiment [2] (I-A 90 mg/kg i.p. daily), the mice survival rate is recorded as 33%; the “Remaining mice, Day 10” value was 8/12; the “Remaining mice, Day 14” value was 4/12. Besides, the “viral load in lung” value in experiment [2] (I-A 90 mg/kg) was “no significative impact”. Moreover, in experiment [2] (I-A 185 mg/kg i.p. daily), the mice survival rate worked out at 58%; the “Remaining mice, Day 10” value is 12/12; the “Remaining mice, Day 14” value was 7/12. For the same compound, the “viral load in lung” value in experiment [2] (I-A 185 mg/kg) was “no significative impact”. In experiment [2] (I-A 500 mg/kg i.p. daily), the mice survival rate is listed as 75%; the “Remaining mice, Day 10” value is given as 10/12; the “Remaining mice, Day 14” value is given as 9/12. In experiment [2] (I-A 500 mg/kg, 8 days after infection, in comparison to the vehicle group), the “viral load in lung (quantity of H1N1 particles)” value is “significantly reduced the quantity of H1N1 particles”. Further, in experiment [2] (setting [3]), the “body weight in comparison to vehicle (D3-D8)” value was “weak improvement” and the “clinical scores / clinical states of the mice compared to vehicle group” value is recorded as “improved clinical states”. In experiment [2] (lung, day 8, flow cytometry), the “modulation of the recruitment of monocyte derived macrophages” value is “not observed”, the “number of CD11b+DC” value is “tended to be reduced” and the “proportion of CD206+ macrophages” value is on record as “increased”. For the same compound, the “destruction of alveolar macrophages due to the infection” value in experiment [2] (lung, day 8, flow cytometry, effect did not seem dose dependent) is “reduced”.
Consider `NC(=O)c1ccc[n+]([C@@H]2O[C@H](CO)[C@@H](O)[C@H]2O)c1` [Compound I-G, NICOTINAMIDE RIBOSIDE], for which, in the experiment with H1N1, the “Remaining mice, Day 11” value is listed as 6/12; the “Remaining mice, Day 14” value is listed as 6/12; the “survival rate at the end” value is 50%; the “body weight loss” value is on record as “decrease the body weight loss”.
Take `CCOC(=O)C1=C[C@@H](OC(CC)CC)[C@H](NC(C)=O)[C@@H](N)C1` [Tamiflu, oseltamivir, reference compound]: in the experiment on H1N1, the “Remaining mice, Day 11” value is on record as 8/12; the “Remaining mice, Day 14” value is 6/12; the “survival rate at the end” value turned out to be 50%; the “body weight loss” value was “decrease the body weight loss”. Besides, in experiment [1], the “body weight evolution D0 to D14 in comparison to vehicle” value is on record as “slight improvement”, the “clinical score / clinical states of the mice D0 to D14” value is “significantly improved clinical states” and the “viral load in lung” value is “no impact”. Also, the “survival rate at D14” value in experiment [1] (I-A 185 mg/kg i.p. once a day) turned out to be 58%.
